Experimental data taken from ChEMBL document CHEMBL5584338, “Design, Synthesis, and Biological Evaluation of 5-Amino-4-fluoro-1H-benzo[d]imidazole-6-carboxamide Derivatives as Novel and Potential MEK/RAF Complex Inhibitors Based on the "Clamp" Strategy” (J Med Chem, 2024).
Calls of active or inactive are those of the source. No cut-off for these calls is given here.

Assays:
HCT-116 [1] = test: Antiproliferative activity against human HCT-116 cells harboring KRAS G13D mutant incubated for 72 hrs by CCK8 assay; assay type: functional, cell-based; conditions: HCT-116, 72 h
[2] = molecular target: Dual specificity mitogen-activated protein kinase kinase; MEK1/2 (Homo sapiens) (UniProt P36507+Q02750); test: Inhibition of MEK phosphorylation in human MIA PaCa-2 cells upto 1 uM incubated for 4 hrs by Western blot analysis; assay type: cell-based
HCT-116 [3] = test: Antiproliferative activity against human HCT-116 cells harboring KRAS G13D mutant at 1 uM incubated for 72 hrs by CCK8 assay relative to control; assay type: functional
MIA PaCa-2 [4] = test: Antiproliferative activity against human MIA PaCa-2 cells harboring KRAS G12C mutant incubated for 72 hrs by CCK8 assay; assay type: functional, cell-based; conditions: MIA PaCa-2, 72 h
MIA PaCa-2 [5] = test: Antiproliferative activity against human MIA PaCa-2 cells harboring KRAS G12C mutant at 0.1 uM incubated for 72 hrs by CCK8 assay relative to control; assay type: functional
[6] = molecular target: T1, Dual specificity mitogen-activated protein kinase kinase 1 (Homo sapiens, UniProt Q02750); test: Inhibition of MEK1 (unknown origin)
[7] = molecular target: T2, Serine/threonine-protein kinase B-raf (Homo sapiens, UniProt P15056); test: Inhibition of BRAF (unknown origin) assessed as remaining activity at 0.1 uM relative to control
[8] = test system: Mitogen-activated protein kinase 1/3 (ERK1/2) (Homo sapiens); test: Inhibition of ERK phosphorylation in human MIA PaCa-2 cells upto 1 uM incubated for 4 hrs by Western blot analysis
[9] = molecular target: T1, Dual specificity mitogen-activated protein kinase kinase 1; test: Inhibition of MEK1 (unknown origin) assessed as remaining activity at 0.1 uM relative to control
[10] = Inhibition of BRAF […] mutant (unknown origin); design: species or system Homo sapiens
[11] = Antiproliferative activity against mouse C26 cells harboring KRAS G12D mutant incubated for 72 hrs by CCK8 assay; assay type: functional, cell-based, C-26; conditions: C26, 72 h
[12] = molecular target: T2, Serine/threonine-protein kinase B-raf; test: Inhibition of BRAF (unknown origin)
[13] = Antiproliferative activity against rat H9c2 cells incubated for 72 hrs by CCK8 assay; assay type: toxicity, cell-based
HeLa = test: Antiproliferative activity against human HeLa cells incubated for 72 hrs by CCK8 assay; assay type: functional, cell-based
[14] = Stability in human liver microsomes assessed as half life at 200 uM preincubated for 5 mins followed by NADPH addition measured upto 60 mins by LC-MS/MS analysis; assay type: ADME, Microsome; conditions: time 65 min

T1 sequence (Q02750 whole entry): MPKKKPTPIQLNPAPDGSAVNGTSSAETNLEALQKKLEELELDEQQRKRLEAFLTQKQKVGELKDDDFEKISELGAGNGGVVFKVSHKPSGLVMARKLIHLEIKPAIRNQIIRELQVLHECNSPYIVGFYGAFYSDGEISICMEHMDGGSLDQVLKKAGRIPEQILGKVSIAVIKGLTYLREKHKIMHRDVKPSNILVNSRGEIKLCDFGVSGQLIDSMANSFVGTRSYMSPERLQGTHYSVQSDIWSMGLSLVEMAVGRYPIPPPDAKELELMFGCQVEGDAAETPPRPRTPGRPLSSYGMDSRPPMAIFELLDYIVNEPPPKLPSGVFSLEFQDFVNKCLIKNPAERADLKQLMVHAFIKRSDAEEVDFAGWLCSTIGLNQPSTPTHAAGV
T2 sequence (P15056 whole entry): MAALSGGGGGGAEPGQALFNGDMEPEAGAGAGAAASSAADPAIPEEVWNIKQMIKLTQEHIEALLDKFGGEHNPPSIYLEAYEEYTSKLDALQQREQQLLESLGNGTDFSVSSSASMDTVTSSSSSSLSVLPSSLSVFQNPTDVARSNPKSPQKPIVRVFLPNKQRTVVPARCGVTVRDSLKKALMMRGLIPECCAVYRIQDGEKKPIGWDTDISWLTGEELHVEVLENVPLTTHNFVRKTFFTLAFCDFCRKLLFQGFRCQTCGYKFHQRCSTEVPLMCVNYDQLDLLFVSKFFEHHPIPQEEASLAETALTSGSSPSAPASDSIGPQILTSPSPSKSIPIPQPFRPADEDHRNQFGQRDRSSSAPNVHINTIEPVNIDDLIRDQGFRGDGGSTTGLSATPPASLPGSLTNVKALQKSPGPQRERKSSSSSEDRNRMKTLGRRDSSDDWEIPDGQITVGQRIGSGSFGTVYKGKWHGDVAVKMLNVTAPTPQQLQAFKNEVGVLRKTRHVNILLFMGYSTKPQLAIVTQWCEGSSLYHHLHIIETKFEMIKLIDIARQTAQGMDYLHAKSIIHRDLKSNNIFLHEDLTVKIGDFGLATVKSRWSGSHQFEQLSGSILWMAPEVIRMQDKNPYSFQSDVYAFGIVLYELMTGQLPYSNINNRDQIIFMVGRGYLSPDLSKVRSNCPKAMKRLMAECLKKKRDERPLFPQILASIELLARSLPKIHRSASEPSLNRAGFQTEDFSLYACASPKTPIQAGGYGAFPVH
Sequence of Dual specificity mitogen-activated protein kinase kinase; MEK1/2 (Homo sapiens) (P36507 whole entry, looked up): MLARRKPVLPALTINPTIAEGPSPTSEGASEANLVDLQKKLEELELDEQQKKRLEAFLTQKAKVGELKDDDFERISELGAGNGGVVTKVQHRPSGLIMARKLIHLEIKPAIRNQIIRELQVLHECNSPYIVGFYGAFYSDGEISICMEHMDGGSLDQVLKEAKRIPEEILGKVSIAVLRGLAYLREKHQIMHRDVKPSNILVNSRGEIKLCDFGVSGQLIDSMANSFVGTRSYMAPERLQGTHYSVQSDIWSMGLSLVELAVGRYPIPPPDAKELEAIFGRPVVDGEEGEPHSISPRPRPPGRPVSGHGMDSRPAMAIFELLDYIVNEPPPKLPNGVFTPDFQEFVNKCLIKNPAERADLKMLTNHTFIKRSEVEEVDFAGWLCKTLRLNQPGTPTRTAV
Sequence of Dual specificity mitogen-activated protein kinase kinase; MEK1/2 (Homo sapiens) (Q02750 whole entry, looked up): as the sequence (Q02750 whole entry) above

| SMILES | IC50 (HCT-116 [1]) [µM] | inhibition [2] | inhibition at 1 µM (HCT-116 [3]) [%] | IC50 (MIA PaCa-2 [4]) [µM] | inhibition at 0.1 µM (MIA PaCa-2 [5]) [%] | IC50 [6] [µM] | Activity [7] [%] | inhibition [8] | Activity [9] [%] | IC50 [10] [µM] | IC50 [11] [µM] | IC50 [12] [µM] | IC50 at 72 h [13] [µM] | IC50 (HeLa) [µM] | half-life at 200 µM [14] [min] |
| --- | --- | --- | --- | --- | --- | --- | --- | --- | --- | --- | --- | --- | --- | --- | --- |
| CNS(=O)(=O)Nc1nccc(Cc2c(C)c3ccc(Oc4ncccn4)cc3oc2=O)c1F [AVUTOMETINIB] | 0.739 | Active | 56.1 | 0.115 | 59.6 |  |  |  |  |  |  |  |  |  |  |
| CNS(=O)(=O)Nc1cccc(Cn2cnc3c(F)c(Nc4ccc(C5CC5)cc4F)c(C(N)=O)cc32)c1 |  |  | 21.9 |  | 15.8 | > 2 |  |  |  |  |  |  |  |  |  |
| CC(=O)Nc1cccc(Cn2cnc3c(F)c(Nc4ccc(C5CC5)cc4F)c(C(=O)NOCCO)cc32)c1 |  |  | 33.3 | 0.237 | 64.8 |  | 22 | Active | 75 |  |  |  |  |  |  |
| CNS(=O)(=O)Nc1cccc(Cn2cnc3c(F)c(Nc4ccc(C5CC5)cc4F)c(C(=O)NOCCO)cc32)c1 | 0.223 |  | 52.8 | 0.114 | 53.1 | 0.119 | 5 |  | 58 | 0.016 | 0.152 | 0.005 | > 50 | > 10 |  |
| CCNS(=O)(=O)Nc1cccc(Cn2cnc3c(F)c(Nc4ccc(C5CC5)cc4F)c(C(=O)NOCCO)cc32)c1 | 0.123 |  | 60.4 | 0.023 | 78.8 | 0.074 | 0 | Active | 46 | 0.008 | 0.226 | 0.007 | > 50 | > 10 | 47.5 |
| CNS(=O)(=O)Nc1cccc(Cn2cnc3c(F)c(Nc4ccc(I)cc4F)c(C(=O)NOCCO)cc32)c1F | 0.074 | Active | 64.8 | 0.071 | 62 | 0.008 | -2 | Active | 9 |  | 0.011 | 0.004 | > 50 | > 10 | 25 |
| CNS(=O)(=O)Nc1cccc(Cn2cnc3c(F)c(Nc4ccc(C5CC5)cc4F)c(C(=O)NOCCO)cc32)c1F | 0.183 | Active | 61.2 | 0.015 | 75.9 | 0.042 | -4 | Active | 40 | 0.005 | 0.056 | 0.004 | > 50 | > 10 | 37.7 |
| CNS(=O)(=O)Nc1cccc(Cn2cnc3c(F)c(Nc4ccc(Br)cc4F)c(C(=O)NOCCO)cc32)c1F | 0.113 |  | 60.3 | 0.225 | 35.7 |  | 3 |  | 16 |  |  |  |  |  |  |
| CCNS(=O)(=O)Nc1cccc(Cn2cnc3c(F)c(Nc4ccc(Br)cc4F)c(C(=O)NOCCO)cc32)c1F | 0.15 |  | 65.1 | 0.362 | 22.8 |  | 2 |  | 20 |  |  |  |  |  |  |
